# Results from US5053431A, “Derivatives of chrysophanol as topoisomerase II inhibitors” (Sloan-Kettering Institute For Cancer Research, priority 1990, dated 1991).
# Read-outs that look alike come from different tables or passages of the source.
# Assays:
# [1] = test system: mouse leukemia L1210 cells; assay: Inhibition of L1210 cell growth; format: cell-based
# Procedure: Preliminary biological data for inhibiting cell growth of murine L1210 leukemic cells and human acute promyelocytic leukemia cells (HL-60) during 72 h of exposure to the compounds are given in Table IV. The potencies for inhibiting [^3 H]TdR incorporation into DNA in HL-60 cells during the initial 30-min period are also given in Table IV. It is interesting to note that 1,8-di-O-methyl derivatives are uniformly devoid of activity against L1210 leukemic cells. […] The B/A ratios allow an indirect estimation of whether or not cytotoxicities exerted by these analogues are primarily due to initial inhibition of DNA synthesis. […] Whether these analogues, like m-AMSA, ellipticine, or anthracyclines, act by inhibiting DNA topoisomerase II remains to be explored. […] Our preliminary experiments indicate that the compounds arrest cells in the S and/or G2 phases of the cell cycle (unpublished results).
# [2] = test system: human leukemia HL-60 cells; assay: HL-60 cell growth inhibition (72 h); format: cell-based; settings: HL-60, 72 h, read-out: ID50, M [HL-60 cell growth (72 h)] (A)
# Procedure: For cell growth inhibition studies, HL-60 cells […]) were grown in RPMI 1640 media at 37° C. in humidified 5% CO2 for 72 h. Viable cells were counted with the trypan blue exclusion method. The fractional inhibitions at four or five concentrations of compounds (in 0.2% DMSO) were analyzed with a median-effect plot (Chou, T.-C., et al., Adv. Enzyme Regul. 22:27 (1984)) by using a computer program. (Chou, J.; Chou, T.-C. Dose-Effect Analyses with Microcomputer. Quantitation of ID50, LD50, Synergism, Antagonism, Low-dose Risk, Receptor-Binding and Enzyme Kinetics; IBM-PC Series, Elsevier-Biosoft, Elsevier Scientific: Cambridge, U.K., (1986)). The median-effect concentration (ID50) was automatically determined for the x intercept of the median-effect plot. Cell growth in the absence of a compound and in the presence of DMSO was used as a control. DMSO (0.2%) alone inhibited cell growth 3.8±1.2% during the 72-h incubation period.
# [3] = test system: [^3 H]TdR incorporation into DNA in HL-60 cells; assay: Inhibition of [3H]TdR incorporation into DNA in HL-60 cells (initial 30 min); format: cell-based, human; settings: for B/A: ratio of ID50 for TdR incorporation (B) to ID50 for cell growth (A), HL-60; for IC50: HL-60, initial 30 min exposure, read-out: ID50, M (HL-60 TdR into DNA (B))
# Procedure: For precursor incorporation studies, each compound at four to six concentrations (0.2% DMSO) was preincubated with HL-60 cells (2.5×10^6 /Ml) for 15 min prior to the addition of [^3 H-methyl]TdR (1 μCi, 0.15 nmol/mL) and was incubated for 30 min. […] The incorporation of radioactivity in DNA in the absence of an analogue in the presence of DMSO was used as a control.
# [4] = Table IV, L1210, 72 h exposure, read-out: ID50, M (L1210 cell growth)
# [5] = Mus musculus, Table IV, L1210, 72 h exposure, read-out: ID50, M (L1210 cell growth)
# [6] = Mus musculus, L1210, Table I, read-out: ID50 (the source's name)
# [7] = Mus musculus, L1210, Table I, read-out: ID50 (μg/mL)
# [8] = Mus musculus, L1210, Table II, antileukemic activity, read-out: L1210: ID50
# [9] = Table I, read-out: ID50 (the source's name)
"IC50 [1, 5]","IC50 ([2]; Homo sapiens, 0.2% DMSO)","IC50 ([3]; Homo sapiens, 0.5 h)","IC50 [1, 6]","IC50 [1, 7]",Compound,B/A [3],other results
,,,,,"3-(Bromomethyl)-1(and 8)-Hydroxy-8(and 1)-Methoxy-9,10-anthraquinone [Va]",1.7,"IC50 [1, 4]: 8.8 µM; IC50 ([2]; 0.2% DMSO): 7.1 µM"
,,,,,"3-(Dibromomethyl)-1(and 8)-hydroxy-8(and 1)-methoxy-9,10anthraquinone [VIIa]",217,"IC50 [1, 4]: 4.2e-05 µM; IC50 ([2]; 0.2% DMSO): 0.06 µM; IC50 [3]: 13 µM"
,,,,,"6-(Dibromomethyl)-1-(and 8)-hydroxy-3,8(and) 1,3)-dimethoxy-9,10-anthraquinone [VIIb]",237,"IC50 [1, 4]: 0.001 µM; IC50 ([2]; 0.2% DMSO): 0.097 µM; IC50 [3]: 23 µM"
9.2 µM,4.4 µM,11 µM,,,"COc1cccc2c1C(=O)c1c(OC)cc(CBr)cc1C2=O [IIIa, 3-bromomethyl-1,8-dimethoxy-9,10-anthraquinone]",2.5,
0.68 µM,84 µM,12 µM,,,"COc1cc(OC)c2c(c1)C(=O)c1cc(CBr)cc(OC)c1C2=O [IIIb, 3-bromomethyl-1,6,8-trimethoxy-9,10-anthraquinone]",0.14,
28 µM,10 µM,19 µM,,,"COc1cccc2c1C(=O)c1c(OC)cc(C)cc1C2=O [IIa, 1,8-Dimethoxy-3-methyl-9,10-anthraquinone]",,
,,,> 335 µM,> 100 µg/mL,Cc1cc(O)c2c(c1)C(=O)c1cc(O)cc(O)c1C2=O [IIb],,
0.89 µM,2.1 µM,9 µM,,,"COc1cccc2c1C(=O)c1c(OC)cc(C(Br)Br)cc1C2=O [IVa, 3-Dibromomethyl-1,8-dimethoxy-9,10-anthraquinone]",4.3,
41 µM,6 µM,58 µM,,,"COc1cc(OC)c2c(c1)C(=O)c1cc(C(Br)Br)cc(OC)c1C2=O [IVb, 6-(Dibromomethyl)-1,3,8-trimethoxy-9,10-anthraquinone]",9.7,
130 µM,30 µM,19 µM,128 µM,52.3 µg/mL,"CCN(CC)Cc1cc(OC)c2c(c1)C(=O)c1cccc(OC)c1C2=O [IXa-1, 3-[(Diethylamino)methyl]-1,8-dimethoxy-9,10-anthraquinone]",6.3,
> 50 µM,490 µM,14 µM,> 49.8 µM,> 21 µg/mL,"COc1cccc2c1C(=O)c1c(OC)cc(CN(CCO)CCO)cc1C2=O [IXa-2, 3-[N,N-bis(2-hydroxethyl)amino]methyl-1,8-dimethoxy-9,10-anthraquinone]",0.03,"IC50 [1, 8]: > 50 µM"
,,,,,"COc1cccc2c1C(=O)c1c(OC)cc(CN(CCCl)CCCl)cc1C2=O [IXa-3, 3-[N,N-bis(2-chloroethyl)amino]methyl-1,8-dimethoxy-9,10-anthraquinone]",7.8,"ID50 ([1]; Table I): 5.73 µg/mL; IC50 [1, 9]: 12.5 µM; IC50 [1, 4]: 13 µM; IC50 [3]: 14 µM"
72 µM,9.5 µM,9.4 µM,,,CNC(=O)OCCN(CCOC(=O)NC)Cc1cc(OC)c2c(c1)C(=O)c1cccc(OC)c1C2=O [IXa-4],0.99,
1.2 µM,48 µM,29 µM,3.59 µM,1.3 µg/mL,"CCNCc1cc(OC)c2c(c1)C(=O)c1cccc(OC)c1C2=O [IXa-5, 3-(N-ethylamino)methyl-1,8-dimethoxy-9,10-anthraquinone]",0.60,
140 µM,55 µM,46 µM,142 µM,53.7 µg/mL,"COc1cccc2c1C(=O)c1c(OC)cc(CNCCO)cc1C2=O [IXa-6, 3-[N-(2-hydroxyethyl)amino]methyl-1,8-dimethoxy-9,10-anthraquinone]",0.84,
,7.9 µM,4.2 µM,6.91 µM,2.9 µg/mL,"CCN(CC)Cc1cc(OC)c2c(c1)C(=O)c1cc(OC)cc(OC)c1C2=O [IXb-1, 3-(N,N-diethylamino)methyl-1,6,8-trimethoxy-9,10-anthraquinone]",0.53,
> 27 µM,100 µM,17 µM,27.7 µM,12.5 µg/mL,"COc1cc(OC)c2c(c1)C(=O)c1cc(CN(CCO)CCO)cc(OC)c1C2=O [IXb-2, 3-[N,N-bis(2-hydroxethyl)amino]methyl-1,6,8-trimethoxy-9,10-anthraquinone]",0.17,"IC50 [1, 8]: > 27.6 µM"
,,,,,"COc1cc(OC)c2c(c1)C(=O)c1cc(CN(CCCl)CCCl)cc(OC)c1C2=O [IXb-3, 3-[N,N-bis(2-chloroethyl)amino]methyl-1,8,6-trimethoxy-9,10-anthraquinone]",4.5,"ID50 ([1]; Table I): 1.30 µg/mL; IC50 [1, 9]: 2.66 µM; IC50 [1, 4]: 2.7 µM; IC50 ([2]; 0.2% DMSO): 2 µM; IC50 [3]: 8.9 µM"
9.8 µM,17 µM,13 µM,3.67 µM,1.44 µg/mL,"CCNCc1cc(OC)c2c(c1)C(=O)c1cc(OC)cc(OC)c1C2=O [IXb-5, 3-(N-ethylamino)methyl-1,6,8-trimethoxy-9,10-anthraquinone]",0.76,
17 µM,110 µM,26 µM,12.5 µM,5.1 µg/mL,"COc1cc(OC)c2c(c1)C(=O)c1cc(CNCCO)cc(OC)c1C2=O [IXb-6, 3-[N-(2-hydroxyethyl)amino]methyl-1,6,8-trimethoxy-9,10-anthraquinone]",0.24,
0.44 µM,2.5 µM,39 µM,,,"O=C1c2cccc(O)c2C(=O)c2c(O)cc(C(Br)Br)cc21 [VIIIa, 3-(Dibromomethyl)-1,8-dihydroxy-9,10-anthraquinone]",15.6,
0.001 µM,0.19 µM,110 µM,,,"COc1cc(O)c2c(c1)C(=O)c1cc(C(Br)Br)cc(O)c1C2=O [VIIIb, 6-(Dibromomethyl)-3-methoxy-1,8-dihydroxy-9,10-anthraquinone]",579,
8.6 µM,7.1 µM,16 µM,,,"O=C1c2cccc(O)c2C(=O)c2c(O)cc(CBr)cc21 [VIa, 3-bromomethyl-1,8-dihydroxy-9,10-anthraquinone]",2.3,
59 µM,25 µM,340 µM,,,"COc1cc(O)c2c(c1)C(=O)c1cc(CBr)cc(O)c1C2=O [VIb, 3-bromomethyl-1,8-dihydroxy-6-methoxy-9,10-anthraquinone]",13.6,
,3.3 µM,14 µM,5.9 µM,2.33 µg/mL,"O=C1c2cccc(O)c2C(=O)c2c(O)cc(CN(CCO)CCO)cc21 [XIa-2, 3-[N,N-bis(2-hydroxyethyl)amino] methyl-1,8-dihydroxy-9,10-anthraquinone]",4.2,
> 18 µM,210 µM,28 µM,,,CNC(=O)OCCN(CCOC(=O)NC)Cc1cc(O)c2c(c1)C(=O)c1cccc(O)c1C2=O [XIa-4],0.13,

Compound,"IC50 [1, 5]","IC50 ([2]; Homo sapiens, 0.2% DMSO)","IC50 ([3]; Homo sapiens, 0.5 h)","IC50 [1, 6]","IC50 [1, 7]",B/A [3],other results
Cc1cc(O)c2c(c1)C(=O)c1cccc(O)c1C2=O [IIa],,,,> 390 µM,> 100 µg/mL,,
"COc1cc(OC)c2c(c1)C(=O)c1cc(C)cc(OC)c1C2=O [IIb, 1,3,8-Trimethoxy-6-methyl-9,10-anthraquinone]",100 µM,49 µM,21 µM,,,,
"COc1cc(OC)c2c(c1)C(=O)c1cc(CNCCCl)cc(OC)c1C2=O [IXb-7, 3-[N-(2-chloroethyl)amino]methyl-1,6,8-trimethoxy-9,10-anthraquinone]",,,18 µM,,,3.1,"IC50 ([1]; Mus musculus, L1210, 72 h, read-out: ID50, M (L1210 cell growth)): 3.2 µM; IC50 ([2]; Homo sapiens): 5.8 µM"
